The text below walks through data of article PMC10458514, “Structure–Activity Relationship Studies on 6-Chloro-1-phenylbenzazepines Leads to the Identification of a New Dopamine D1 Receptor Antagonist” (Molecules, 2023).

Each structure is given as a SMILES string. Values joined by “and” are separate entries in the source; they are usually repeats but may differ in a detail not shown here. Equal values may be shown once.

Data set [1] has as its target T1, D1R (dopamine D1 receptor) (Homo sapiens, UniProt P21728). As to conditions: for Ki D1R: [3H]SCH23390 radioligand, triplicate, na = not active (<50% inhibition in a primary assay when tested at 10 µM); for Selectivity D5/D1: ratio of Ki D5R to Ki D1R.
Data set [2] deals with D5R (dopamine D5 receptor) (Homo sapiens, UniProt P21918). Nature of the data set: biochemical. Conditions: [3H]SCH23390 radioligand, triplicate, na = not active (<50% inhibition in a primary assay when tested at 10 µM).
Sequence of D5R (dopamine D5 receptor) (P21918 whole entry): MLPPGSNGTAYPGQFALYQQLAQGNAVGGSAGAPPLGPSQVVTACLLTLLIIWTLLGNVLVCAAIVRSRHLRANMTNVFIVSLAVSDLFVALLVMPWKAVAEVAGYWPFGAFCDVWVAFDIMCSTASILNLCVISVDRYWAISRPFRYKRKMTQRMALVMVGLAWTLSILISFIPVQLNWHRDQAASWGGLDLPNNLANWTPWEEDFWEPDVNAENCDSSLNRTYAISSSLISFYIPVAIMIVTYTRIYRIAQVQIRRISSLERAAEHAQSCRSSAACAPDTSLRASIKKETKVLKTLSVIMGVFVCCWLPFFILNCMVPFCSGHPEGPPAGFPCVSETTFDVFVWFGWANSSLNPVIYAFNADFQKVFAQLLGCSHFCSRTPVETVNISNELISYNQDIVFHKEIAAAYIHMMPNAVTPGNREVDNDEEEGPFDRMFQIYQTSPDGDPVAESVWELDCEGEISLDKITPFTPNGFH
Data set [3] has as its target T1, D1R (dopamine D1 receptor). Nature of the data set: biochemical. As to conditions: [3H]SCH23390 radioligand, triplicate, na = not active (<50% inhibition in a primary assay when tested at 10 µM).
For data set [4], the target named is T2, D1R (Homo sapiens, UniProt P21728).
T2 construct: Eurofins Discover X
T2 sequence (P21728 whole entry): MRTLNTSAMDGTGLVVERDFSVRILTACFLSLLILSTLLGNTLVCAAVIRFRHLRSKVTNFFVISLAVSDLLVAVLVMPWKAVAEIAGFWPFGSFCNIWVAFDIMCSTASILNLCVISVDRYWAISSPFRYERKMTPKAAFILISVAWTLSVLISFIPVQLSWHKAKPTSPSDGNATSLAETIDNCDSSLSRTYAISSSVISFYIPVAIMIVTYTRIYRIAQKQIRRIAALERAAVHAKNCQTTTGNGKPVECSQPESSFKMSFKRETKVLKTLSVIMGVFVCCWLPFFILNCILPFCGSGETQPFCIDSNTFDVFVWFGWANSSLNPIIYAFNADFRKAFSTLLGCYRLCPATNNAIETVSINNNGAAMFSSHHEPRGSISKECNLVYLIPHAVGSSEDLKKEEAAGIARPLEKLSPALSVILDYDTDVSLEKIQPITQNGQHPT
As to the kind of experiment: D1R cAMP functional assay, agonist format (Eurofins DiscoverX HitHunter). The data set is classed as cell-based. As to conditions: agonist mode.
Method: (§1) In the agonist format, cells were first incubated with sample to induce a response. Then, the media was aspirated from the cells and replaced with 15 μL 2:1 HBSS/10 mM Hepes: cAMP XS + Ab reagent. Sample stocks were diluted to generate 4X sample in assay buffer. […] The final assay concentration used was 1%. In antagonist mode, the cells were pre-incubated with a sample followed by agonist challenge at the EC80 concentration. The media was aspirated from cells and replaced with 10 μL 2:1 HBSS/10 mM Hepes: cAMP XS + Ab reagent. […] For agonist and antagonist assays, signal detection was performed as follows. […] This was followed by incubation with 20 μL cAMP XS + EA reagent for 3 h at room temperature. The microplates were read following signal generation with a PerkinElmer Envision™ instrument for chemiluminescent signal detection.

The target in data set [5] is T2, D1R. As to the kind of experiment: D1R cAMP functional assay, antagonist format (Eurofins DiscoverX HitHunter). The data set is classed as cell-based. Conditions: antagonist mode; for Max Response, antagonist format: agonist challenge at EC80, in % (unit assumed).
Method: as §1

What is called melting point is the temperature of the solid-liquid transition. As a reminder, the Ki is a dissociation constant, usually derived from enzyme kinetics or from competition with a known ligand. The low end stands for tighter binding, the high end for weaker binding. Usually EC50 stands for the midpoint of the concentration-response curve. Usually IC50 stands for the concentration at which inhibition is half-maximal.

T1 sequence (P21728 whole entry): as above

Compound `COc1ccc2c(c1Cl)CCNCC2c1ccccc1` (stereo not drawn) [Compound 10a, 6-chloro-7-methoxy-1-phenyl-2,3,4,5-tetrahydro-1H-benzo[d]azepine] came in with a melting point of 156.4 to 158 °C.
Still for that read-out and setting: the figure for `COc1ccc2c(c1Cl)CCNCC2c1cccc(C)c1` (stereo not drawn) [Compound 10b, 6-chloro-7-methoxy-1-(m-tolyl)-2,3,4,5-tetrahydro-1H-benzo[d]azepine] is 180.4 to 181.8 °C.
The compound `COc1ccc(C2CNCCc3c2ccc(OC)c3Cl)cc1` (stereo not drawn) [Compound 10c, 6-chloro-7-methoxy-1-(4-methoxyphenyl)-2,3,4,5-tetrahydro-1H-benzo[d]azepine] gave a melting point of 151.3 to 152.7 °C.
On to `Oc1ccc2c(c1Cl)CCNCC2c1ccccc1` (stereo not drawn) [Compound 11a, 6-chloro-1-phenyl-2,3,4,5-tetrahydro-1H-benzo[d]azepin-7-ol], for which the melting point was in the range of 134.6 to 135.8 °C. For the same compound, the “Ki D1R” value in data set [1] is reported as “no D1R affinity”. The compound also displayed a Ki in data set [2] of 470 nM.
`Cc1cccc(C2CNCCc3c2ccc(O)c3Cl)c1` (stereo not drawn) [Compound 11b, 6-chloro-1-(m-tolyl)-2,3,4,5-tetrahydro-1H-benzo[d]azepin-7-ol]: the melting point lay in the range of 122.3 to 124.2 °C. Moreover, the “Ki D1R” value in data set [1] is given as “no affinity”.
Regarding `Oc1ccc(C2CNCCc3c2ccc(O)c3Cl)cc1` (stereo not drawn) [Compound 11d, 6-chloro-1-(4-hydroxyphenyl)-2,3,4,5-tetrahydro-1H-benzo[d]azepin-7-ol], the melting point was in the range of 135.8 to 136.9 °C. Further, in data set [1], the “Ki D1R” value is on record as “did not bind to D1R”.
The compound `C=CCN1CCc2c(ccc(OC)c2Cl)C(c2cccc(C)c2)C1` (stereo not drawn) [Compound 12b, 3-allyl-6-chloro-7-methoxy-1-(m-tolyl)-2,3,4,5-tetrahydro-1H-benzo[d]azepine] returned a melting point of 172.1 to 173.8 °C.
Same read-out and setting: under `C=CCN1CCc2c(ccc(OC)c2Cl)C(c2ccc(OC)cc2)C1` (stereo not drawn) [Compound 12c, 3-allyl-6-chloro-7-methoxy-1-(4-methoxyphenyl)-2,3,4,5-tetrahydro-1H-benzo[d]azepine] stands 155.4 to 157.1 °C; under `COc1ccc2c(c1Cl)CCN(C)CC2c1cccc(C)c1` (stereo not drawn) [Compound 13b, 6-chloro-7-methoxy-3-methyl-1-(m-tolyl)-2,3,4,5-tetrahydro-1H-benzo[d]azepine], 174.5 to 176.1 °C.
On the same count and under the same terms, the figure for `COc1ccc(C2CN(C)CCc3c2ccc(OC)c3Cl)cc1` (stereo not drawn) [Compound 13c, 6-chloro-7-methoxy-1-(4-methoxyphenyl)-3-methyl-2,3,4,5-tetrahydro-1H-benzo[d]azepine] is 155.4 to 157.1 °C.
As to `C=CCN1CCc2c(ccc(O)c2Cl)C(c2ccccc2)C1` (stereo not drawn) [Compound 14a], the “Selectivity D5/D1” value in data set [1] was found to be 2.9. Besides, the results for the Ki in data set [3] and in data set [2] were 102 ± 5.2 nM and 297 ± 19.3 nM, respectively.
On to `C=CCN1CCc2c(ccc(O)c2Cl)C(c2cccc(C)c2)C1` (stereo not drawn) [Compound 14b, 3-allyl-6-chloro-1-(m-tolyl)-2,3,4,5-tetrahydro-1H-benzo[d]azepin-7-ol], for which the melting point is 151.3 to 152.7 °C. For the same compound, in data set [1], the “Selectivity D5/D1” value is listed as 2.6. Also, the inhibitory constant (Ki) in data set [3] was found to be 281 nM. This compound came in with an inhibitory constant (Ki) in data set [2] of 741 ± 12.5 nM.
For the compound `C=CCN1CCc2c(ccc(O)c2Cl)C(c2ccc(O)cc2)C1` (stereo not drawn) [Compound 14d, 3-allyl-6-chloro-1-(4-hydroxyphenyl)-2,3,4,5-tetrahydro-1H-benzo[d]azepin-7-ol], the melting point fell in the range of 132.5 to 134.1 °C. Moreover, the “Ki D1R” value in data set [1] is listed as “no affinity”.
Compound `CN1CCc2c(ccc(O)c2Cl)C(c2ccccc2)C1` (stereo not drawn) [Compound 15a, 6-chloro-3-methyl-1-phenyl-2,3,4,5-tetrahydro-1H-benzo[d]azepin-7-ol] registered a melting point of 143.5 to 145.1 °C. In addition, the “RC50 (EC50), agonist format” value at D1R [4] is reported as “No D1R agonistic activity”. At D1R [4] (in % (unit assumed)), the “Max Response, agonist format” value turned out to be 17.22. The EC50 at D1R [4] (read-out: RC50 (EC50), agonist format) is above 10000 nM. For the same compound, the “Max Response, antagonist format” value at D1R [5] amounted to 66.12. Further, the concentration for half-maximal inhibition (IC50) at D1R [5] (agonist challenge at EC80, read-out: RC50 (IC50), antagonist format) was 130 nM. Moreover, the “Selectivity D5/D1” value in data set [1] was 6 and 6.2. Further, in data set [3], the Ki is 30 nM and 30.1 nM. The compound also yielded a Ki in data set [2] of 187 nM.
Compound `Cc1cccc(C2CN(C)CCc3c2ccc(O)c3Cl)c1` (stereo not drawn) [Compound 15b, 6-chloro-3-methyl-1-(m-tolyl)-2,3,4,5-tetrahydro-1H-benzo[d]azepin-7-ol] gave a melting point of 142.6 to 144 °C. Moreover, the “Selectivity D5/D1” value in data set [1] is on record as 2.1. Moreover, the Ki in data set [3] was 78 nM and 77.9 nM. In addition, in data set [2], affinity was put at a Ki of 165 ± 4.9 nM.
Consider `CN1CCc2c(ccc(O)c2Cl)C(c2ccc(O)cc2)C1` (stereo not drawn) [Compound 15d], for which the “Selectivity D5/D1” value in data set [1] is on record as 2.6. Further, the Ki in data set [3] amounted to 161 nM; in data set [2], 413 ± 9.8 nM.
`CN1CCc2c(cc([N+](=O)[O-])c(O)c2Cl)C(c2ccccc2)C1` (stereo not drawn) [Compound 16a, 6-chloro-3-methyl-8-nitro-1-phenyl-2,3,4,5-tetrahydro-1H-benzo[d]azepin-7-ol]: the melting point lay within 198.7 to 200 °C. Further, the “Ki D1R” value in data set [1] is “no affinity”.
`Cc1cccc(C2CN(C)CCc3c2cc([N+](=O)[O-])c(O)c3Cl)c1` (stereo not drawn) [Compound 16b, 6-chloro-3-methyl-8-nitro-1-(m-tolyl)-2,3,4,5-tetrahydro-1H-benzo[d]azepin-7-ol] registered a melting point of 210.4 to 212.6 °C. The same compound gave a Ki in data set [3] of 4350 nM.
`CN1CCc2c(cc(N)c(O)c2Cl)C(c2ccccc2)C1` (stereo not drawn) [Compound 17a, 8-amino-6-chloro-3-methyl-1-phenyl-2,3,4,5-tetrahydro-1H-benzo[d]azepin-7-ol] gave a melting point of 137 to 138.9 °C. The “Selectivity D5/D1” value in data set [1] came out at 1.3. Further, in data set [3], affinity was put at a Ki of 210 nM. The compound also had a Ki in data set [2] of 270 ± 8.4 nM.
As for `Cc1cccc(C2CN(C)CCc3c2cc(N)c(O)c3Cl)c1` (stereo not drawn) [Compound 17b, 8-amino-6-chloro-3-methyl-1-(m-tolyl)-2,3,4,5-tetrahydro-1H-benzo[d]azepin-7-ol], the melting point lay in the range of 134.8 to 136 °C. Also, the “Selectivity D5/D1” value in data set [1] is 2.0. Further, in data set [3], the inhibitory constant (Ki) was 72 nM and 71.9 nM. This compound also displayed an inhibition constant (Ki) in data set [2] of 146 ± 5.8 nM.
On to `CC(=O)Nc1cc2c(c(Cl)c1O)CCN(C)CC2c1ccccc1` (stereo not drawn) [Compound 18a, N-(9-chloro-8-hydroxy-3-methyl-5-phenyl-2,3,4,5-tetrahydro-1H-benzo[d]azepin-7-yl)acetamide], for which the melting point was in the range of 154.4 to 156.2 °C.
With `CC(=O)Nc1cc2c(c(Cl)c1O)CCN(C)CC2c1cccc(C)c1` (stereo not drawn) [Compound 18b, N-(9-chloro-8-hydroxy-3-methyl-5-(m-tolyl)-2,3,4,5-tetrahydro-1H-benzo[d]azepin-7-yl)acetamide], the melting point lay within 151.6 to 152.8 °C. For the same compound, the Ki in data set [3] was 1360 ± 14 nM.
In the case of `CCCC(=O)Nc1cc2c(c(Cl)c1O)CCN(C)CC2c1ccccc1` (stereo not drawn) [Compound 19a, N-(9-chloro-8-hydroxy-3-methyl-5-phenyl-2,3,4,5-tetrahydro-1H-benzo[d]azepin-7-yl)butyramide], the melting point lay within 148.7 to 150.1 °C. In addition, in data set [3], the Ki was 1970 ± 41.4 nM.
For the compound `CCCC(=O)Nc1cc2c(c(Cl)c1O)CCN(C)CC2c1cccc(C)c1` (stereo not drawn) [Compound 19b, N-(9-chloro-8-hydroxy-3-methyl-5-(m-tolyl)-2,3,4,5-tetrahydro-1H-benzo[d]azepin-7-yl)butyramide], the melting point lay in the range of 156.2 to 157.9 °C. In addition, the “Selectivity D5/D1” value in data set [1] is 4.7. In data set [3], this compound came in with a Ki of 634 ± 12.5 nM. Moreover, the affinity in data set [2] corresponds to a Ki of 2960 ± 29.6 nM.
`CC(C)C(=O)Nc1cc2c(c(Cl)c1O)CCN(C)CC2c1ccccc1` (stereo not drawn) [Compound 20a, N-(9-chloro-8-hydroxy-3-methyl-5-phenyl-2,3,4,5-tetrahydro-1H-benzo[d]azepin-7-yl)isobutyramide] yielded a melting point of 144.6 to 145.9 °C. This compound also came in with an inhibitory constant (Ki) in data set [3] of 2940 ± 36.2 nM.
For `C=CC(=O)Nc1cc2c(c(Cl)c1O)CCN(C)CC2c1ccccc1` (stereo not drawn) [Compound 21a, N-(9-chloro-8-hydroxy-3-methyl-5-phenyl-2,3,4,5-tetrahydro-1H-benzo[d]azepin-7-yl)acrylamide] the same measures were 161.4 to 163.1 °C and 1500 ± 18.9 nM.
On to `C=CC(=O)Nc1cc2c(c(Cl)c1O)CCN(C)CC2c1cccc(C)c1` (stereo not drawn) [Compound 21b], for which, in data set [3], the inhibition constant Ki was 4980 ± 61.3 nM.
On to `CN1CCc2c(cc(NC(N)=O)c(O)c2Cl)C(c2ccccc2)C1` (stereo not drawn) [Compound 23a, 1-(9-chloro-8-hydroxy-3-methyl-5-phenyl-2,3,4,5-tetrahydro-1H-benzo[d]azepin-7-yl)urea], for which the melting point was 141 to 142.1 °C. In data set [3], the Ki worked out at 1762 ± 17.6 nM.
For `Cc1cccc(C2CN(C)CCc3c2cc(NC(N)=O)c(O)c3Cl)c1` (stereo not drawn) [Compound 23b, 1-(9-chloro-8-hydroxy-3-methyl-5-(m-tolyl)-2,3,4,5-tetrahydro-1H-benzo[d]azepin-7-yl)urea], the melting point is 184.6 to 186.1 °C.
Compound `O=[N+]([O-])c1cc2c(c(Cl)c1O)CCNCC2c1ccccc1` (stereo not drawn) [Compound 24a, 6-chloro-8-nitro-1-phenyl-2,3,4,5-tetrahydro-1H-benzo[d]azepin-7-ol] showed a melting point of 201.4 to 202.8 °C. In addition, the “Ki D1R” value in data set [1] was “no affinity”.
Take `Cc1cccc(C2CNCCc3c2cc([N+](=O)[O-])c(O)c3Cl)c1` (stereo not drawn) [Compound 24b, 6-chloro-8-nitro-1-(m-tolyl)-2,3,4,5-tetrahydro-1H-benzo[d]azepin-7-ol]: the melting point was 188.9 to 191.2 °C. Besides, the “Selectivity D5/D1” value in data set [1] is listed as 2.6. Besides, the Ki in data set [3] is 38 nM and 38.1 nM. This compound displayed a Ki in data set [2] of 97.9 ± 3.6 nM.
As to `CN1CCc2cc(Cl)c(O)cc2[C@H]2c3ccccc3CC[C@@H]21` [SCH 39166, reference compound], on D1R [5], the “Max Response, antagonist format” value worked out at 102.24.
